The values below come from ChEMBL document CHEMBL5465560, “Selectivity Literature for EUbOPEN Chemogenomic Library” (2024).

Series [1] concerns the target Cyclin-dependent kinase 4/cyclin D1 (Homo sapiens) (UniProt P11802+P24385). Conditions: at 10 µM.
For series [2], the target named is RAF proto-oncogene serine/threonine-protein kinase (Homo sapiens) (UniProt P04049). The note with it: at 10 µM.
In series [3] the target is Tyrosine-protein kinase Fes/Fps (Homo sapiens) (UniProt P07332). The series is described as follows: Selectivity interaction (KinomeScan (DiscoverX)) EUB0000655a FES. Conditions: at 10 µM.
The target in series [4] is Amine oxidase [flavin-containing] B (Homo sapiens, UniProt P27338). The series is described as follows: Selectivity interaction (Eurofins safety panel) EUB0001564a MAOB. Conditions: at 10 µM.
The target of series [5] is T1, Mitogen-activated protein kinase kinase kinase 3 (Homo sapiens) (UniProt Q99759).
T1 sequence (whole entry): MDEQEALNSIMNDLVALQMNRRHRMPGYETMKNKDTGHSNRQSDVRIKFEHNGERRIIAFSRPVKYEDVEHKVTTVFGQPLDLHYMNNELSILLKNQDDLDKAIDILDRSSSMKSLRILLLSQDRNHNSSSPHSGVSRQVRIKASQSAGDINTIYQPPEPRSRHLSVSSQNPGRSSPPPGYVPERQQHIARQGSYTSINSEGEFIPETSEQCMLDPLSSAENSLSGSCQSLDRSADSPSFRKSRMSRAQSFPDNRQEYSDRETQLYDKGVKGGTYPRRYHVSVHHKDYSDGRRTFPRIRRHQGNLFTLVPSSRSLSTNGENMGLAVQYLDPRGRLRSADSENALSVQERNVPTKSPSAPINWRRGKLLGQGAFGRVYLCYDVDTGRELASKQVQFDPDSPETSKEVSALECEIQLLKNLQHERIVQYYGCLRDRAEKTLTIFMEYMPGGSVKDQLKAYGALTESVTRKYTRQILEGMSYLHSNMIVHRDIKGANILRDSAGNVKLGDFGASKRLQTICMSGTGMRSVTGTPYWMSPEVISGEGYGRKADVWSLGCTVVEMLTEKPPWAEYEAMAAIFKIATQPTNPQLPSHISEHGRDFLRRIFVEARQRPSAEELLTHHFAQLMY
The series is described as follows: Selectivity interaction (KinomeScan (DiscoverX)) EUB0000695a MAP3K3. The note with it: at 100 nM.

The target of series [6] is Bromodomain-containing protein 2 (Homo sapiens) (UniProt P25440). Description: Selectivity interaction (Bromodomain panel (DSF asssay)) EUB0000270b BRD2.
Series [7] deals with T2, Histone-arginine methyltransferase CARM1 (Homo sapiens) (UniProt Q86X55).
T2 sequence (whole entry): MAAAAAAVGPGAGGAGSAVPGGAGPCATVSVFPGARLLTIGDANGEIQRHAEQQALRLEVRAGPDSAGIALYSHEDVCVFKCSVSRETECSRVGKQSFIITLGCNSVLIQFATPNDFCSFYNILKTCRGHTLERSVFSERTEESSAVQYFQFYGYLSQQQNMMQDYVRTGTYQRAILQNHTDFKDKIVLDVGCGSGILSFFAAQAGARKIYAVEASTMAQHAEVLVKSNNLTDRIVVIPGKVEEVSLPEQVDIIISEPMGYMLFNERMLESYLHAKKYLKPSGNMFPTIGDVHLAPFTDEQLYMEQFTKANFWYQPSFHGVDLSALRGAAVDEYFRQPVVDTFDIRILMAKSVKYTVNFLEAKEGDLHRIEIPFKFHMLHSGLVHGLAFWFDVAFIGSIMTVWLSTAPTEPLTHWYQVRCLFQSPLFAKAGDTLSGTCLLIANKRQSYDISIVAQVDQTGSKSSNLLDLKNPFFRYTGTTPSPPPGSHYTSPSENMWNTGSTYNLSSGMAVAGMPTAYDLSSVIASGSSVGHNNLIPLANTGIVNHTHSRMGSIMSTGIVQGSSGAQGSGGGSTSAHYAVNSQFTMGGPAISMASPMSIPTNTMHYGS
The note with it: KMS-27, at 3 µM.

The target in another series is D(3) dopamine receptor (Homo sapiens, UniProt P35462). Description: Selectivity interaction (Dopamine D3 receptor assay, human recombinant ) EUB0000877a DRD3.
The target of series [8] is T3, Tyrosine-protein kinase TXK (Homo sapiens) (UniProt P42681).
T3 sequence (whole entry): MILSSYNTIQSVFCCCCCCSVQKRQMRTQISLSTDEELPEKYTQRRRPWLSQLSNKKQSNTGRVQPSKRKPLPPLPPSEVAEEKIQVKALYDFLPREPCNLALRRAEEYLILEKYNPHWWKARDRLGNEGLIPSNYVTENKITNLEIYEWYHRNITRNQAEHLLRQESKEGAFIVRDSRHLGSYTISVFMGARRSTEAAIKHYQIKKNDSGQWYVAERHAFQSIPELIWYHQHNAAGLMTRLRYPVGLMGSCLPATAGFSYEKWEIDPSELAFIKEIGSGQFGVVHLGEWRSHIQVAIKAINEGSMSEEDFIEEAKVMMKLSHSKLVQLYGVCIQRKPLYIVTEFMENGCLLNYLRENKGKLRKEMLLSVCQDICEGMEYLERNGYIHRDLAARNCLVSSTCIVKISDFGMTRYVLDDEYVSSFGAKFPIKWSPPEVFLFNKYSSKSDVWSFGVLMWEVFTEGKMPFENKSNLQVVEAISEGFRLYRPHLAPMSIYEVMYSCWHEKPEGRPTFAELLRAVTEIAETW
The series is described as follows: Selectivity interaction (KinomeScan (DiscoverX)) EUB0000595a TXK. Conditions: at 10 µM.

Series [9] concerns the target Myosin light chain kinase, smooth muscle (Homo sapiens, UniProt Q15746). Description: Selectivity interaction (KinomeScan (DiscoverX)) EUB0001619a MYLK. Conditions: at 1 µM.
Series [10] concerns the target Tyrosine-protein kinase JAK1 (Homo sapiens, UniProt P23458). The series is described as follows: Selectivity interaction (KinomeScan (DiscoverX)) EUB0000618a JAK1. The note with it: at 10 µM.
In series [11] the target is Mitogen-activated protein kinase kinase kinase 1 (Homo sapiens, UniProt Q13233). The series is described as follows: Selectivity interaction (KinomeScan (DiscoverX)) EUB0000618a MAP3K1. The note with it: at 10 µM.
Chain of Mitogen-activated protein kinase kinase kinase 1 (Q13233 whole entry): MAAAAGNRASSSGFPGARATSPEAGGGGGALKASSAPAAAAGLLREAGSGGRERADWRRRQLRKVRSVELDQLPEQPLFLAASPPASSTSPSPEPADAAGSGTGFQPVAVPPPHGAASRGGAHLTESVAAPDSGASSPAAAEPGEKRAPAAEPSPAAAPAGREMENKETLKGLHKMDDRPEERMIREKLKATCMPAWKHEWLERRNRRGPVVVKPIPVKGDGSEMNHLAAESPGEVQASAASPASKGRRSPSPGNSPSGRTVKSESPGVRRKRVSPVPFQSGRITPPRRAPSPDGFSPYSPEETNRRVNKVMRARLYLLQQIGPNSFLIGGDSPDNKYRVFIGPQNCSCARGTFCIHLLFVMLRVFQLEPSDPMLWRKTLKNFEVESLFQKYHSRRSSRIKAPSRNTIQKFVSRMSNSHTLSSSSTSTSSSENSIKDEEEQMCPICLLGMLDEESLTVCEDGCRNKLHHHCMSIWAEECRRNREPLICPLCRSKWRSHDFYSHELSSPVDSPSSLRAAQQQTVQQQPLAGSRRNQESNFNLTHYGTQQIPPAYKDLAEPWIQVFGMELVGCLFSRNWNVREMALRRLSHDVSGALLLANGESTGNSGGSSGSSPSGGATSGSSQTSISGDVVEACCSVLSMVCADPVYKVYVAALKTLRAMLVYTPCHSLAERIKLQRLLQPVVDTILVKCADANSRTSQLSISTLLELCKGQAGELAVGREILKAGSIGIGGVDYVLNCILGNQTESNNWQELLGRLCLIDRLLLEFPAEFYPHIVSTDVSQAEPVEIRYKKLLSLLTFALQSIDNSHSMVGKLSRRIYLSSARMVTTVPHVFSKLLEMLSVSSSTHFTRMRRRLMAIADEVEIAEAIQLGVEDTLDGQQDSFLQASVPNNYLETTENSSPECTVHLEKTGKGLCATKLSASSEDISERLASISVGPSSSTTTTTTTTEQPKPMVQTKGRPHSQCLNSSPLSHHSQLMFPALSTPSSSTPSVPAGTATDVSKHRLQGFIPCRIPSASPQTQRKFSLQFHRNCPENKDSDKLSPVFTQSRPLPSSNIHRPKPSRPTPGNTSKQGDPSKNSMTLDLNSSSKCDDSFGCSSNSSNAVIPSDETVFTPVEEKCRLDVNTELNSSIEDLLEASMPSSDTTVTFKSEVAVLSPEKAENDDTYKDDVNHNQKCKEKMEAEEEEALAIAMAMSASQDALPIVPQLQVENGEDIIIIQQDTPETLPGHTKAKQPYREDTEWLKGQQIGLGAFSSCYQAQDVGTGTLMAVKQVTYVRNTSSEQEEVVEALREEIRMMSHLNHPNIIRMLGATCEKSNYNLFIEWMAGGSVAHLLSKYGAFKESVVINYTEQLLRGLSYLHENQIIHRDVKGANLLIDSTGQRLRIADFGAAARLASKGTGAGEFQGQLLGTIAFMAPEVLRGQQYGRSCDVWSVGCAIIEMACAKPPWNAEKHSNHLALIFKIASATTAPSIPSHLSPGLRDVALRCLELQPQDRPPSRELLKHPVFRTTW

Chain of Bromodomain-containing protein 2 (Homo sapiens) (P25440 whole entry, looked up): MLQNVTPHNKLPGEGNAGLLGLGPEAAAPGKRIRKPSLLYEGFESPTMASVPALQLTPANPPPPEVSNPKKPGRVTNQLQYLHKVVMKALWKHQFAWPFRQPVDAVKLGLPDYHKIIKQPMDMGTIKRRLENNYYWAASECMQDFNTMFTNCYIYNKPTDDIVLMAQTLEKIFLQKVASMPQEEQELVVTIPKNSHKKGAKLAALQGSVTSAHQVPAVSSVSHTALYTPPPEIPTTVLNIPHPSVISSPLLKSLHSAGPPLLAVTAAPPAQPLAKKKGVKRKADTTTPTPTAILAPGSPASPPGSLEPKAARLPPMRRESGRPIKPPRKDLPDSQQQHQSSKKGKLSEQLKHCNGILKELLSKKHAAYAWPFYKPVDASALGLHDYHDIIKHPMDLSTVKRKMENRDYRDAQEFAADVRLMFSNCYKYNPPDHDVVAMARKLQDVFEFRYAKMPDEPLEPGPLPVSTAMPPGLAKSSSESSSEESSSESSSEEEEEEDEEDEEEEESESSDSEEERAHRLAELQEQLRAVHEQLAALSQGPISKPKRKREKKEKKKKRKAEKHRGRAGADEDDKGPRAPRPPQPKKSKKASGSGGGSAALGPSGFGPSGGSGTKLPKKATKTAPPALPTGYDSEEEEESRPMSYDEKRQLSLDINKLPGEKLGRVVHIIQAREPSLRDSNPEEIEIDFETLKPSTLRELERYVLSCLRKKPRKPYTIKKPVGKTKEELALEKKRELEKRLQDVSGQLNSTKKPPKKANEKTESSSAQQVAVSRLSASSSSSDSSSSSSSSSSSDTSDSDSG
Chain of D(3) dopamine receptor (P35462 whole entry): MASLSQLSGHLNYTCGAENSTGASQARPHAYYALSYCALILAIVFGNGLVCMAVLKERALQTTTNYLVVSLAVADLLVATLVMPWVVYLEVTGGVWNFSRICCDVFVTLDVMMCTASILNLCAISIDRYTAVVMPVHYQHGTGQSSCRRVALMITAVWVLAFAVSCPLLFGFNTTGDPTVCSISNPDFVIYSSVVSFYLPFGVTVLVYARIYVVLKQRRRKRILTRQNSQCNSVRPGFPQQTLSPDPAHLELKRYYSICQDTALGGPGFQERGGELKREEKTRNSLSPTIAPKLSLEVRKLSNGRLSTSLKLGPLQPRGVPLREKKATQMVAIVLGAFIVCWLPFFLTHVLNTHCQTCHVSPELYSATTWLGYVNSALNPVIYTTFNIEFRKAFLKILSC
Chain of Myosin light chain kinase, smooth muscle (Q15746 whole entry): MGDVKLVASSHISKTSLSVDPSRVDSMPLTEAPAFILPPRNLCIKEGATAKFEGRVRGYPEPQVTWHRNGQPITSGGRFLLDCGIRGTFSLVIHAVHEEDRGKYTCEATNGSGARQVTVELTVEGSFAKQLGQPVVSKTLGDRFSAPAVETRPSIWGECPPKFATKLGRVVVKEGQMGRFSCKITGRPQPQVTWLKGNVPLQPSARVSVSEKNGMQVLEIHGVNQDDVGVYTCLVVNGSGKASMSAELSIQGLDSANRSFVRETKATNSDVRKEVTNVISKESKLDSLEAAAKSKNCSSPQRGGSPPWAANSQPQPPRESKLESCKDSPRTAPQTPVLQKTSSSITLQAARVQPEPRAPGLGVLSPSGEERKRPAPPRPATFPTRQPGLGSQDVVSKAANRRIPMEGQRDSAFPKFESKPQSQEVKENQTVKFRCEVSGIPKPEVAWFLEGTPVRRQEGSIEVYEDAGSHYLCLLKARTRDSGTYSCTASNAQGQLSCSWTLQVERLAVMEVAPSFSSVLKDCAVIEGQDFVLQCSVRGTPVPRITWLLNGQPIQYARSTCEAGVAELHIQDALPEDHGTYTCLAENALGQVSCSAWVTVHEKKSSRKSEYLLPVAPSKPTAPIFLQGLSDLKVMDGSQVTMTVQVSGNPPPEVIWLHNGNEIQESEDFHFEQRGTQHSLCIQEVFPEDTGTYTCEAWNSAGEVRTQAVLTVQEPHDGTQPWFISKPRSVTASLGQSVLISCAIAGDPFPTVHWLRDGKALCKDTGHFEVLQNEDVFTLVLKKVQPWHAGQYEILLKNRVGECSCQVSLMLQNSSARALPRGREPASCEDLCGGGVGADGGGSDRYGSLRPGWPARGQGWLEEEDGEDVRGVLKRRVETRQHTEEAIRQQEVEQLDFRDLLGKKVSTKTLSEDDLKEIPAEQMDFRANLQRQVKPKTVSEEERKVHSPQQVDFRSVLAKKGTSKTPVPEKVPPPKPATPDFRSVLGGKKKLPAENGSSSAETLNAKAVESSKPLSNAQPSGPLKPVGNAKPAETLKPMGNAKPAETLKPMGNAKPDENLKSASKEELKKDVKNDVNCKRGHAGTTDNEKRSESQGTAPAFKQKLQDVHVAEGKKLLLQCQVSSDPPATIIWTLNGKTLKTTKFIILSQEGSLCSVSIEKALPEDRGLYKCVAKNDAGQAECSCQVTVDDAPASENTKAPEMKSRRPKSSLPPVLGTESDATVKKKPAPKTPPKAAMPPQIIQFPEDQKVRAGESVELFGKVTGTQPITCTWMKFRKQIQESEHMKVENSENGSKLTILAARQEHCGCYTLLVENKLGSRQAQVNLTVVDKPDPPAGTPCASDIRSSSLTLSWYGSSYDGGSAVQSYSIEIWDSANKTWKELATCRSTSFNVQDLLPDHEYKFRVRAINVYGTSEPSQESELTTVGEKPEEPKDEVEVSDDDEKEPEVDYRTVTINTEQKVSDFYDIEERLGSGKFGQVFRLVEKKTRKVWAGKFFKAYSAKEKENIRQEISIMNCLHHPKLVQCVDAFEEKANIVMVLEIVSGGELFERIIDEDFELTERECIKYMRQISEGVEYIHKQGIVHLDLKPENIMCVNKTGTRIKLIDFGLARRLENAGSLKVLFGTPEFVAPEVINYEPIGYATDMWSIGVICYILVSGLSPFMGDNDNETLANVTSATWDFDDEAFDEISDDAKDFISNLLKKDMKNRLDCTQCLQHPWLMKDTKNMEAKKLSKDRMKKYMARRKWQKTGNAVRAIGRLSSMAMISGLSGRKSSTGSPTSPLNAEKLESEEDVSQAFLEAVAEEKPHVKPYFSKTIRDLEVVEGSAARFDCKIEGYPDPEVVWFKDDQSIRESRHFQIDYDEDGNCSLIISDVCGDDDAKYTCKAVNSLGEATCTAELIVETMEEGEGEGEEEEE

For `Cc1cc([C@@H](C)Nc2ccccc2C(=O)O)c2nc(N3CCOCC3)cc(=O)n2c1` [AZD-6482], the % of control in [1] and in series [2] was 100% throughout.
In [3], `CN(C)CCOc1ccc(-c2nc(-c3ccncc3)c(-c3ccc4c(c3)CC/C4=N\O)[nH]2)cc1` had a % of control of 100%.
Take `CC[C@@H](Nc1c(C#N)c(-c2ccc(-c3cccc(C)c3F)cc2)nc2cnccc12)C(=O)O` [BAY-091]: the “% of inhibition” value in series [4] amounted to 81%.
In series [5], `Cc1cc(F)c(C(=O)Nc2cccc(-c3nncn3C(C)C)n2)cc1-n1cnc(C2CC2)c1` gave a % of control of 93%.
On to `Cc1cc(CN)cc(C)c1-c1ncn(C)c1-c1cncn1C`, for which the dTM in series [6] is -1.94 K.
Consider `CNCCN1CCC(c2cc(CN(C)C(=O)c3cccc(Oc4ccccc4)c3)ccn2)CC1`, for which the % of growth rate in series [7] was -17.2%.
Regarding `CCC(=O)N1CC[C@H](Nc2ncnc3c2CN(c2cnc(OC)c(C(F)(F)F)c2)CC3)C1` [LENIOLISIB], the IC50 at D(3) dopamine receptor was > 30 µM.
`COCC(=O)NC/C=C/c1ccc2ncnc(Nc3ccc(Oc4ccc(C)nc4)c(C)c3)c2c1` [CP-724714] yielded a % of control in [8] of 84%.
In the case of `N#Cc1cccc(-c2c[nH]c3ncnc(N4CCOCC4)c23)c1`, the % of control in [9] is 100%.
Turning to `O[C@H]1CC[C@H](Nc2ncc3nc(Nc4c(F)cc(F)cc4F)n([C@H]4CCOC4)c3n2)CC1`, the % of control in [10] was 70%; in series [11], 91%.

As a reminder, the IC50 is the concentration needed to halve the response being measured.
